Results taken from article PMC4147592 (2014).
Each block holds one compound with its values, some of them ahead of it.

Columns and labels:
[1] = tested on: B08 (DNA, aptamer) AGCCTCGTCTGTTCTCCCGGCGCATGATCATTCGGTGGGTAAGGTGGTGGTAACGTTGGGGAAGACAAGCAGACGT; assay: SYBR Green I displacement fluorescence; conditions: 137 mM NaCl, 2.7 mM KCl, 10 mM Na2HPO4, 2 mM KH2PO4, pH 7.4, tracer SYBR Green I
[2] = tested on: A08 minimer (DNA, aptamer) GGCAGTGTGGGCGAATCTATGCGTACCGTTCGATATCGTG; assay: SYBR Green I displacement fluorescence; conditions: 137 mM NaCl, 2.7 mM KCl, 10 mM Na2HPO4, 2 mM KH2PO4, pH 7.4, tracer SYBR Green I
[3] = tested on: Non-specific control (DNA, single strand) AGCACGTTGGTAGGTCGGTTTGGGTTTCGTGC; assay: SYBR Green I displacement fluorescence; conditions: 137 mM NaCl, 2.7 mM KCl; 10 mM Na2HPO4, 2 mM KH2PO4, pH 7.4; tracer SYBR Green I; highest OTA about 0.18 µM
[4] = tested on: 1.12.2 (DNA, aptamer) GATCGGGTGTGGGTGGCGTAAAGGGAGCATCGGACA; assay: magnetic beads isocratic elution, fluorescence; conditions: 137 mM NaCl, 2.7 mM KCl; immobilised compound (amine Dynabeads, EDC); 10 mM Na2HPO4, 2 mM KH2PO4, pH 7.4; apparent
[5] = tested on: A08 (DNA, aptamer) AGCCTCGTCTGTTCTCCCGGCAGTGTGGGCGAATCTATGCGTACCGTTCGATATCGTGGGGAAGACAAGCAGACGT; assay: magnetic beads isocratic elution, fluorescence; conditions: 137 mM NaCl, 2.7 mM KCl; immobilised compound (amine Dynabeads, EDC); 10 mM Na2HPO4, 2 mM KH2PO4, pH 7.4; apparent
[6] = tested on: B08 (DNA, aptamer) AGCCTCGTCTGTTCTCCCGGCGCATGATCATTCGGTGGGTAAGGTGGTGGTAACGTTGGGGAAGACAAGCAGACGT; assay: magnetic beads isocratic elution, fluorescence; conditions: 137 mM NaCl, 2.7 mM KCl; immobilised compound (amine Dynabeads, EDC); 10 mM Na2HPO4, 2 mM KH2PO4, pH 7.4; apparent
[7] = tested on: A08 (DNA, aptamer) AGCCTCGTCTGTTCTCCCGGCAGTGTGGGCGAATCTATGCGTACCGTTCGATATCGTGGGGAAGACAAGCAGACGT; assay: SYBR Green I displacement fluorescence; conditions: 137 mM NaCl, 2.7 mM KCl, 10 mM Na2HPO4, 2 mM KH2PO4, pH 7.4, tracer SYBR Green I
[8] = tested on: A08 (DNA, aptamer) AGCCTCGTCTGTTCTCCCGGCAGTGTGGGCGAATCTATGCGTACCGTTCGATATCGTGGGGAAGACAAGCAGACGT; assay: fluorescence enhancement at 520 nm; conditions: 137 mM NaCl, 2.7 mM KCl; 10 mM Na2HPO4, 2 mM KH2PO4, pH 7.4; excitation 497 nm
[9] = tested on: B08 (DNA, aptamer) AGCCTCGTCTGTTCTCCCGGCGCATGATCATTCGGTGGGTAAGGTGGTGGTAACGTTGGGGAAGACAAGCAGACGT; assay: fluorescence enhancement at 520 nm; conditions: 137 mM NaCl, 2.7 mM KCl; 10 mM Na2HPO4, 2 mM KH2PO4, pH 7.4; excitation 497 nm
[10] = tested on: A08 minimer (DNA, aptamer) GGCAGTGTGGGCGAATCTATGCGTACCGTTCGATATCGTG; assay: fluorescence enhancement at 520 nm; conditions: 137 mM NaCl, 2.7 mM KCl; 10 mM Na2HPO4, 2 mM KH2PO4, pH 7.4; excitation 497 nm
[11] = tested on: Non-specific control (DNA, single strand) AGCACGTTGGTAGGTCGGTTTGGGTTTCGTGC; assay: fluorescence enhancement at 520 nm; conditions: 137 mM NaCl, 2.7 mM KCl; 10 mM Na2HPO4, 2 mM KH2PO4, pH 7.4; excitation 497 nm
[12] = compared at 30 and 100 nM, highest about 0.18 µM

SMILES: C[C@@H]1Cc2c(Cl)cc(C(=O)N[C@@H](Cc3ccccc3)C(=O)O)c(O)c2C(=O)O1
binding [1]: yes | binding ([2]; linear signal to 100 nM OTA): yes | binding [3]: no | KD [4]: 370 ± 250 nM | KD [5]: 290 ± 150 nM | KD [6]: 110 ± 50 nM

binding ([7]; OTA signal 6–10 fold larger): weak | binding ([1]; OTA signal 2–3 fold larger): weak | binding ([2]; OTA signal 6–10 fold larger): weak
SMILES: C[C@@H]1Cc2ccc(C(=O)N[C@@H](Cc3ccccc3)C(=O)O)c(O)c2C(=O)O1

binding [8]: yes | binding [9]: yes | binding [10]: yes | binding [11]: yes
SMILES: CCCN(CCCN(C)C)c1cc(C=C2Sc3ccccc3N2C)c2ccccc2[n+]1-c1ccccc1

binding [7, 12]: no | binding ([1]; OTA signal 2–3 fold larger): weak | binding [2, 12]: no
SMILES: CC(=O)CC(c1ccccc1)c1c(O)c2ccccc2oc1=O (stereo not shown)
